Laboratory results published in article PMC12481029, “Design, synthesis, antiproliferative assessments, and computational studies of new quinolin-2(1H)-ones as dual EGFR/HER-2 inhibitors” (Frontiers in Chemistry, 2025).
Several values for one entry are separate records, joined by “and”; a condition that tells them apart may be missing. Equal entries are not always repeated. Where two headings read alike, the source gives them in different places. Each block holds one compound with its values, some of them ahead of it.

Columns and labels:
[1] = tested on: lung (A-549) cancer cell line; test: Antiproliferative assay, A-549; format: cell-based; conditions: Homo sapiens, A549; read-out: Antiproliferative activity IC50 ± SEM, A-549
Text: (§1) The MTT assay ([Al-Wahaibi et al., 2022]; [Mahmoud et al., 2023]) was employed to assess the antiproliferative effects of compounds 3a-h and 5a-g on four human cancer cell lines: colon (HT-29) cancer, pancreatic (Panc-1) cancer, lung (A-549) cancer, and breast (MCF-7) cancer cell lines. Erlotinib was applied as a reference. Table 1 presents the median inhibitory concentration (IC50) and average IC50 (GI50) values for each compound evaluated on the four cancer cell lines.
(§2) Compounds 3a-h and 5a-g were tested for their antiproliferative activities on four human cancer cell lines: colon (HT-29), pancreatic (Panc-1), lung (A-549), and breast (MCF-7) using the MTT assay ([Al-Wahaibi et al., 2022]; [Mahmoud et al., 2023]). Erlotinib was applied as a reference.
(§3) To explore the antiproliferative potential of compounds propidium iodide fluorescence assay was performed using different cell lines such as Panc-1 (pancreas cancer cell line), MCF-7 (breast cancer cell line), HT-29 (colon cancer cell line) and A-549 (epithelial cancer cell line), respectively. To calculate the total nuclear DNA, a fluorescent dye (propidium iodide, PI) is used which can attach to the DNA, thus offering a quick and precise technique. PI cannot pass through the cell membrane and its signal intensity can be considered as directly proportional to quantity of cellular DNA. Cells whose cell membranes are damaged or have changed permeability are counted as dead ones. The assay was performed by seeding the cells of different cell lines at a density of 3000-7500 cells/well (in 200μl medium) in culture plates followed by incubation for 24h at 37 °C in humidified 5%CO2/95% air atmospheric conditions. The medium was removed; the compounds were added to the plates at 10 μM concentrations (in 0.1% DMSO) in triplicates, followed by incubation for 48h. DMSO (0.1%) was used as control. After incubation, medium was removed followed by the addition of PI (25 μl, 50μg/mL in water/medium) to each well of the plates. At -80 °C, the plates were allowed to freeze for 24 h, followed by thawing at 25 °C. A fluorometer (Polar-Star BMG Tech) was used to record the readings at excitation and emission wavelengths of 530 and 620 nm for each well. The percentage cytotoxicity of compounds was calculated using the following formula: […]

[2] = tested on: breast (MCF-7) cancer cell line; test: Antiproliferative assay, MCF-7; format: cell-based; conditions: Homo sapiens, MCF7; read-out: Antiproliferative activity IC50 ± SEM, MCF-7
Text: as §1, §2, §3

[3] = tested on: pancreatic (Panc-1) cancer cell line; test: Antiproliferative assay, Panc-1; format: cell-based; conditions: Homo sapiens, read-out: Antiproliferative activity IC50 ± SEM, Panc-1
Text: as §1, §2, §3

[4] = tested on: colon (HT-29) cancer cell line; test: Antiproliferative assay, HT-29; format: cell-based; conditions: Homo sapiens, read-out: Antiproliferative activity IC50 ± SEM, HT-29
[5] = tested on: four human cancer cell lines (A-549, MCF-7, Panc-1, HT-29); test: Antiproliferative assay, average over four cancer cell lines; format: cell-based; conditions: for GI50: Homo sapiens, average IC50 over the four cancer cell lines
Caspase-3 = Caspase-3 activation assay; format: cell-based, human; conditions: MCF-7 cells; for Caspase-3 Fold change: versus control
Description: (§4) Refer to Supplementary Appendix A.
Allow all reagents to reach room temperature before use. Gently mix all liquid reagents prior to use. Determine the number of 8-well strips needed for the assay. Insert these in the frame(s) for current use. Add 100 μl of the Standard Diluent Buffer to the zero standard wells. Well(s) reserved for chromogen blank should be left empty. Add 100 μl of standards and controls or diluted samples to the appropriate microtiter wells. The sample dilution chosen should be optimized for each experimental system. Tap gently on side of plate to mix. Cover wells with plate cover and incubate for 2 hours at room temperature. Thoroughly aspirate or decant solution from wells and discard the liquid, Wash wells 4 times. […] Tap gently on the side of the plate to mix. Cover plate with plate cover and incubate for 1 hour at room temperature. Thoroughly aspirate or decant solution from wells and discard the liquid, Wash wells 4 times. Add 100 μl Anti-Rabbit IgG HRP Working Solution to each well except the chromogen blank(s). Prepare the working dilution as described in Preparing IgG HRP. Cover wells with the plate cover and incubate for 30 minutes at room temperature. Thoroughly aspirate or decant solution from wells and discard the liquid. Wash wells 4 times. Add 100 μl of Stabilized Chromogen to each well. The liquid in the wells will begin to turn blue. Incubate for 30 minutes at room temperature and in the dark. The incubation time for chromogen substrate is often determined by the microtiter plate reader used. Many plate readers have the capacity to record a maximum optical density (O.D.) of 2.0. The O.D. values should be monitored, and the substrate reaction stopped before the O.D. of the positive wells exceeds the limits of the instrument. The O.D. values at 450 nm can only be read after the Stop Solution has been added to each well. […] Add 100 μl of Stop Solution to each well. Tap side of plate gently to mix. The solution in the wells should change from blue to yellow. Read the absorbance of each well at 450 nm having blanked the plate reader against a chromogen blank composed of 100 μl each of Stabilized Chromogen and Stop Solution. Read the plate within 2 hours after adding the Stop Solution. Use a curve fitting software to generate the standard curve. […] Read the concentrations for unknown samples and controls from the standard curve. Multiply value(s) obtained for sample(s) by the appropriate dilution factor to correct for the dilution in step 3.

Caspase-8 = Caspase-8 activation assay; format: cell-based, human; conditions: MCF-7 cells; for Caspase-8 Fold change: versus control
Description: as §4
(§5) (Cells are Plated in a density of 1.2 – 1.8 × 10,000 cells/well in a volume of 100µl complete growth medium + 100 ul of the tested compound per well in a 96-well plate for 24 hours before the enzyme assay for Tubulin.). The absorbance of each microwell was read on a spectro-photometer at 450 nm. A standard curve is prepared from 7human Caspase-8 standard dilutions and human Caspase-8 concentration determined.

Caspase-9 = Caspase-9 activation assay; format: cell-based, human; conditions: MCF-7 cells; for Caspase-9 Fold change: versus control
Description: To elucidate the apoptotic mechanism of compounds 3d and 5a, whether via the intrinsic or extrinsic pathway, their impact on caspase-8 and caspase-9 was evaluated.
RPMI 1640 with 10% FBS was used to assist the cells grow at 37 °C, and then the cells were treated with the compounds being studied to check the activity of caspase-3, -8, and -9 ([Hisham et al., 2019]). Refer to Supplementary Appendix A.
as §5, with “Cells were obtained from American Type Culture Collection, cells were grown in RPMI 1640 containing 10% fetal bovine serum at 37°C, stimulated with the compounds to be tested for caspase8, and lysed with Cell Extraction Buffer. This lysate was diluted in Standard Diluent Buffer over the range of the assay and measured for human active caspase-8 content. (Cells” for “(Cells”

Bax = Bax level assay; conditions: MCF-7 cells; for Bax Fold change: versus control
Description: Bring all reagents, except the human Bax-α Standard, to room temperature for at least 30 minutes prior to opening. The human Bax-α Standard solution should not be left at room temperature for more than 10 minutes. All standards, controls and samples should be run in duplicate. Refer to the Assay Layout Sheet to determine the number of wells to be used and put any remaining wells with the desiccant back into the pouch and seal the ziploc. Store unused wells at 4 °C. Pipet 100 μL of Assay Buffer into the S0 (0 pg/mL standard) wells. Pipet 100 μL of Standards #1 through #6 into the appropriate wells. Pipet 100 μL of the Samples into the appropriate wells. Tap the plate gently to mix the contents. Seal the plate and incubate at room temperature on a plate shaker for 1 hour at ~500 rpm. Empty the contents of the wells and wash by adding 400 μL of wash solution to every well. Repeat the wash 4 more times for a total of 5 washes. After the final wash, empty or aspirate the wells and firmly tap the plate on a lint free paper towel to remove any remaining wash buffer. Pipet 100 μL of yellow Antibody into each well, except the Blank. Seal the plate and incubate at room temperature on a plate shaker for 1 hour at ~500 rpm. Empty the contents of the wells and wash by adding 400 μL of wash solution to every well. Repeat the wash 4 more times for a total of 5 washes. After the final wash, empty or aspirate the wells and firmly tap the plate on a lint free paper towel to remove any remaining wash buffer. Add 100 μL of blue Conjugate to each well, except the Blank. Seal the plate and incubate at room temperature on a plate shaker for 30 minutes at ~500 rpm. Empty the contents of the wells and wash by adding 400 μL of wash solution to every well. Repeat the wash 4 more times for a total of 5 washes. After the final wash, empty or aspirate the wells and firmly tap the plate on a lint free paper towel to remove any remaining wash buffer. Pipet 100 μL of Substrate Solution into each well. Incubate for 30 minutes at room temperature on a plate shaker at ~500 rpm. Pipet 100 μL Stop Solution to each well. Blank the plate reader against the Blank wells, read the optical density at 450 nm. Calculate the average net Optical Density (OD) bound for each standard and sample by subtracting the average Blank OD from the average OD for each standard and sample. Using linear graph paper, plot the Average Net OD for each standard versus Bax concentration in each standard. Approximate a straight line through the points. The concentration of Bax in the unknowns can be determined by interpolation.

Bcl-2 = Bcl-2 level assay; conditions: MCF-7 cells; for Bcl-2 Fold reduction: versus control
Description: Mix all reagents thoroughly without foaming before use. Wash the microwells twice with approximately 300 μL Wash Buffer per well with thorough aspiration of microwell contents between washes. Take caution not to scratch the surface of the microwells. After the last wash, empty the wells and tap microwell strips on absorbent pad or paper towel to remove excess Wash Buffer. Use the microwell strips immediately after washing or place upside down on a wet absorbent paper for not longer than 15 minutes. […] Add 100 μL of Sample Diluent in duplicate to all standard wells and to the blank wells. […] Add 100 μL of Sample Diluent, in duplicate, to the blank wells. Add 80 μL of Sample Diluent, in duplicate, to the sample wells. Add 20 μL of each Sample, in duplicate, to the designated wells. Add 50 μL of diluted biotin-conjugate to all wells, including the blank wells. Cover with a plate cover and incubate at room temperature, on a microplate shaker at 100 rpm if available, for 2 hours. Remove plate cover and empty the wells. Wash microwell strips 3 times as described in step 2. Add 100 μL of diluted Streptavidin-HRP to all wells, including the blank wells. Cover with a plate cover and incubate at room temperature, on a microplate shaker at 100 rpm if available, for 1 hour. Remove plate cover and empty the wells. Wash microwell strips 3 times as described in step 2. […] Pipette 100 μl of mixed TMB Substrate Solution to all wells, including the blanks. Incubate the microwell strips at room temperature (18° to 25°C) for about 15 minutes, if available on a rotator set at 100 rpm. Avoid direct exposure to intense light. The point, at which the substrate reaction is stopped, is often determined by the ELISA reader. Many ELISA readers record absorbance only up to 2.0 O.D. Therefore, the color development within individual microwells must be watched by the person running the assay and the substrate reaction stopped before positive wells are no longer properly detectable. Stop the enzyme reaction by quickly pipetting 100 μL of Stop Solution into each well, including the blank wells. It is important that the Stop Solution is spread quickly and uniformly throughout the microwells to completely inactivate the enzyme. Results must be read immediately after the Stop Solution is added or within one hour if the microwell strips are stored at 2 - 8°C in the dark. Read absorbance of each microwell on a spectrophotometer using 450 nm as the primary wavelength.

Cytochrome C = Cytochrome C assay; conditions: MCF-7 cells; for Cytochrome C Fold change: versus control
Description: This lysate was diluted in Standard Diluent Buffer over the range of the assay and measured for cytochrome C content. (Cells are Plated in cells/well in a volume of 100µl complete growth medium + 100 µl of the tested compound + 50 µl of 1X biotin conjugated antibody+ 100 µl of 1X streptavidin-HRP+ 100 µL TMB substrate solution of per well in a 96-well plate for 24 hours before assay).

EGFR = EGFR (Homo sapiens, UniProt P00533); test: EGFR inhibitory assay (EGFR-TK test); conditions: EGFR inhibition IC50 ± SEM
Description: 5ʹ upstream to the EGFR sequence comprised a sequence that encoded (His)6. Sf-9 cells were infected for 72h for protein expression. The pellets of Sf-9 cells were solubilized in a buffer containing sodium vanadate (100 μM), aprotinin (10 μg/mL), triton (1%), HEPES buffer(50mM), ammonium molybdate (10 μM), benzamidine HCl (16 μg/mL), NaCl (10 mM),leupeptin (10 μg/mL) and pepstatin (10 μg/mL) at 0°C for 20 min at pH 7.4, followed by centrifugation for 20 min. To eliminate the nonspecifically bound material, a Ni-NTA super flow packed column was used to pass through and wash the crude extract supernatant first with 10mM and then with 100 mM imidazole. Histidine-linked proteins were first eluted with 250 and then with 500 mM imidazole subsequent to dialysis against NaCl (50 mM), HEPES (20 mM), glycerol (10%) and 1 μg/mL each of aprotinin, leupeptin and pepstatin for 120 min. The purification was performed either at 4 °C or on ice. To record autophosphorylation level, EGFR kinase assay was carried out on the basis of DELFIA/Time-Resolved Fluorometry. […] Each compound (10 μL) was incubated with recombinant enzyme (10 μL, 5 ng for EGFR, 1:80 dilution in 100 mM HEPES) for 10 min at 25 °C, subsequent to the addition of 5X buffer (10 μL, containing 2 mM MnCl2, 100 μM Na3VO4, 20 mM HEPES and 1 mM DTT) and ATP-MgCl2 (20 μL, containing 0.1 mM ATP and 50 mM MgCl2) and incubation for 1h. The negative and positive controls were included in each plate by the incubation of enzyme either with or without ATP-MgCl2. The liquid was removed after incubation and the plates were washed thrice using a wash buffer. The Europium-tagged antiphosphotyrosine antibody (75 μL, 400 ng) was added to each well followed by incubation of 1h and then washing of the plates using buffer. […] The autophosphorylation percentage inhibition by compounds was calculated using the following equation:
The majority of signals detected by antiphosphotyrosine antibody were from EGFR because the enzyme preparation contained low impurities.

HER-2 = HER-2 (Homo sapiens, UniProt P04626); test: HER-2 inhibitory assay (ADP-Glo kinase assay)
Description: The ADP-Glo™ Kinase Assay was used for kinase activity detection, related kinases information: HER-2 (ab60866, Abcam), with a concentration of 100 ng/mL. Target compounds were dissolved in DMSO to obtain drug solutions with different concentrations, and the compound concentrations in the final reaction system (100 μL) were 1 nM, 20 nM, 40 nM, 80 nM, and 100 nM, respectively. 10μL of the solution containing compounds was transferred to a 96-well plate, then added 40 μL of 1 × kinase buffer (50 mM HEPES, pH 7.5) to each well, and mixed the mixture in the 96-well plate on a shaker for 10 min. Next, added 25 μL of ADP-Glo™ reagent to the above wells, mixed and incubated for another 40 min. Distributed 10 μL kinase detection reagent to the reaction and incubated for 30 min. Finally, the full-wavelength microplate reader was used to record the OD value.

[6] = Cell viability assay (MTT), normal mammary cells; conditions: human, MCF-10A normal mammary epithelial cells
Description: (§6) MTT assay was performed to investigate the effect of the synthesized compounds on mammary epithelial cells (MCF-10A). The cells were propagated in medium consisting of Ham's F-12 medium/ Dulbecco's modified Eagle's medium (DMEM) (1:1) supplemented with 10% foetal calf serum, 2 mM glutamine, insulin (10 μg/mL), hydrocortisone (500 ng/mL) and epidermal growth factor (20 ng/mL). Trypsin ethylenediamine tetra acetic acid (EDTA) was used to passage the cells after every 2-3 days. 96-well flat-bottomed cell culture plates were used to seed the cells at a density of 10^4 cells mL^-1. The medium was aspirated from all the wells of culture plates after 24 h followed by the addition of synthesized compounds (in 200 μL medium to yield a final concentration of 0.1% (v/v) dimethyl sulfoxide) into individual wells of the plates. Four wells were designated to a single compound. The plates were allowed to incubate at 37°C for 96 h. Afterwards, the medium was aspirated and 3-[4,5-dimethylthiazol-2-yl]-2,5-diphenyltetrazolium bromide (MTT) (0.4 mg/mL) in medium was added to each well and subsequently incubated for 3 h. The medium was aspirated and 150 μL dimethyl sulfoxide (DMSO) was added to each well. The plates were vortexed followed by the measurement of absorbance at 540 nm on a microplate reader.

[7] = tested on: MCF-7 human breast cancer cell line; test: Flow cytometric cell cycle analysis; format: cell-based
in vitro = conditions: human
Description: as §6

[8] = tested on: panel of cancer cell lines; set-up: method as in Voigtlaender et al., 2018; conditions: ref Voigtlaender et al., 2018; read-out: GI50 against a panel of cancer cell lines; cited from earlier work
[9] = tested on: breast (MCF-7) cancer cell line; set-up: method as in Voigtlaender et al., 2018; conditions: ref Voigtlaender et al., 2018, cited from earlier work; for IC50: read-out: IC50 against the MCF-7 cell line

Chain of HER-2 (P04626 676-1255 limits assumed): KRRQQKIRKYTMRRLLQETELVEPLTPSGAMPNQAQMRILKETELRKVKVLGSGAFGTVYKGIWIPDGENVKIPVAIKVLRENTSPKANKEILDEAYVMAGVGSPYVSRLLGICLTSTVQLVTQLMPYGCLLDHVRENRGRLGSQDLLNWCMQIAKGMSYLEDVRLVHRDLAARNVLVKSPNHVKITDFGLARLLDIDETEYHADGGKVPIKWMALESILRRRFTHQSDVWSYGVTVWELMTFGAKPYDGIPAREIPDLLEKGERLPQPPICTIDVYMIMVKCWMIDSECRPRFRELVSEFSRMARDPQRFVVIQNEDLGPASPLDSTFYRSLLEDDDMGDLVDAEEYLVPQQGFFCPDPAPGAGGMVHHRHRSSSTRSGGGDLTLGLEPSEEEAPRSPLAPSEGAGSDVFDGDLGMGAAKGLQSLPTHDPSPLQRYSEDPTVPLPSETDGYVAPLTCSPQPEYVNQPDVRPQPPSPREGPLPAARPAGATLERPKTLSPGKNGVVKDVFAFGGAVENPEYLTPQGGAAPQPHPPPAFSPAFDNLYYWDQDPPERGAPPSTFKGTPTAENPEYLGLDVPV
Chain of EGFR (P00533 669-1210): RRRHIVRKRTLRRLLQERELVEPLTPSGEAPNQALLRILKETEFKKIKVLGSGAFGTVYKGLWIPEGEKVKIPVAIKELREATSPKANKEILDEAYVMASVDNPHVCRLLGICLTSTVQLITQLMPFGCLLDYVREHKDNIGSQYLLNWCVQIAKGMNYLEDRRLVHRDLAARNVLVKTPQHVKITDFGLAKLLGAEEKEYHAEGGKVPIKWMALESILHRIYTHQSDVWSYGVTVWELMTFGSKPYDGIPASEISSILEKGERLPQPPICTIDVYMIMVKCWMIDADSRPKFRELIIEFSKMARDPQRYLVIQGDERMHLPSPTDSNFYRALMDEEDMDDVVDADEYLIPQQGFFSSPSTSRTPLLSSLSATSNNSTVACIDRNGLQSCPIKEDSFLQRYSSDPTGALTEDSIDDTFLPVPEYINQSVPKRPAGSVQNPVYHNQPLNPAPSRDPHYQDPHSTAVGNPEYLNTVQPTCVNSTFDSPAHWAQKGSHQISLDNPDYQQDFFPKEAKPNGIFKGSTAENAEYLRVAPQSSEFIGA

IC50 [1]: 40 ± 3 nM
IC50 [2]: 37 ± 3 nM
IC50 [3]: 43 ± 4 nM
IC50 [4]: 42 ± 4 nM
GI50 [5]: 41 nM
Fold less effective than erlotinib (GI50) ([5]; ratio to erlotinib GI50 = […] nM): 1.3
IC50 (EGFR): 91 ± 6 nM
IC50 (HER-2): 38 ± 2 nM
SMILES: Cc1ccc(S(=O)(=O)N/N=C/c2c(O)c3ccccc3[nH]c2=O)cc1 [Compound 3d, (E)-N'-((4-hydroxy-2-oxo-1,2-dihydroquinolin-3-yl)methylene)-4-methyl benzenesulfonohydrazide]
Caspase-3 Conc (Caspase-3): 515 ± 5 pg/mL
Caspase-3 Fold change (Caspase-3): 8.0
Caspase-8 Conc (Caspase-8): 2.10 ± 0.20 ng/mL
Caspase-8 Fold change (Caspase-8): 23
Caspase-9 Conc (Caspase-9): 21 ± 3 ng/mL
Caspase-9 Fold change (Caspase-9): 21
Bax Conc (Bax): 310 pg/mL and 310 ± 2 pg/mL
Bax Fold change (Bax): 34
Bcl-2 Conc (Bcl-2): 0.80 ng/mL
Bcl-2 Fold reduction (Bcl-2): 6
Cytochrome C Conc (Cytochrome C): 0.65 ng/mL
Cytochrome C Fold change (Cytochrome C): 13
viability at 4 days, 50 µM [6]: 91%

SMILES: O=c1[nH]c2ccccc2c(O)c1/C=N/Nc1ccc([N+](=O)[O-])cc1[N+](=O)[O-] [Compound 5a, (E)-3-((2-(2,4-Dinitrophenyl)hydrazono)methyl)-4-hydroxyquinolin-2(1H)-one]
IC50 [1]: 36 ± 3 nM
IC50 [2]: 34 ± 3 nM
IC50 [3]: 38 ± 3 nM
IC50 [4]: 38 ± 3 nM
Fold less effective than erlotinib (GI50) [5]: 1.2
GI50 [5]: 37 nM
Caspase-3 Conc (Caspase-3): 570 ± 5 pg/mL
Caspase-3 Fold change (Caspase-3): 9.0
Caspase-8 Conc (Caspase-8): 2.65 ± 0.25 ng/mL
Caspase-8 Fold change (Caspase-8): 29
Caspase-9 Conc (Caspase-9): 24 ± 1 ng/mL
Caspase-9 Fold change (Caspase-9): 24
Percentage of cells in G2/M phase [7]: 1.94%
Percentage of cells in S phase ([7]; control 26.82%): 15.65%
viability at 4 days, 50 µM (in vitro): 88%
Bax Conc (Bax): 320 pg/mL and 320 ± 2 pg/mL
Bax Fold change (Bax): 35
Bcl-2 Conc (Bcl-2): 0.70 ng/mL
Bcl-2 Fold reduction (Bcl-2): 7
Cytochrome C Conc (Cytochrome C): 0.85 ng/mL
Cytochrome C Fold change (Cytochrome C): 17
IC50 (EGFR): 87 ± 5 nM
IC50 (HER-2): 33 ± 2 nM
Times less potent than lapatinib, HER-2 inhibition (HER-2; ratio to lapatinib IC50): 1.3

SMILES: O=c1[nH]c2ccccc2c(O)c1/C=N/c1ccc(NS(=O)(=O)c2ncccn2)cc1 [Compound III]
GI50 [8]: 25 nM
Times more potent than erlotinib, MCF-7 ([9]; ratio of IC50 values): 1.8
IC50 [9]: 23 nM

SMILES: C#Cc1cccc(Nc2ncnc3cc(OCCOC)c(OCCOC)cc23)c1 [Erlotinib, reference compound]
IC50 [1]: 30 ± 3 nM
IC50 [2]: 40 ± 3 nM
IC50 [3]: 30 ± 3 nM
IC50 [4]: 30 ± 3 nM
IC50 [9]: 40 nM
